Assay results taken from patent publication US10570122B2, “Compounds with anti-tumoral activity” (AB Science, priority 2015, dated 2020).

Legend:
[1] = test system: HL60; experiment: CellTiter-Blue cell-based survival/proliferation assay, HL60; details: Homo sapiens, HL-60, Leukemia cell line HL60, 48 h, read-out: Anti-tumoral activity (measured IC50) HL60
Method in brief: (§1)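 Tenfold compound dilutions (0–10 μM) were added to 1·10^4 cells/well. Plates incubated 48 h at 37 °C. CellTiter-Blue reduction (4 h, 37 °C) was read as fluorescence at 590 nm, background-corrected with a cell-free blank.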

[2] = test system: HUT78; experiment: CellTiter-Blue cell-based survival/proliferation assay, HUT78; details: Homo sapiens, Lymphoma cell line HUT78, 48 h, read-out: Anti-tumoral activity (measured IC50) HUT78
Method: (§2) Cell-Based Proliferation Screening of Compounds
(§3) CellTiter-Blue cell-based survival/proliferation assay (Promega G8080) was performed on tumor cell lines. A total of 1·10^4 cells/well/50 μl were seeded in a 96-wells plate. Treatment was initiated by addition of a 2× drug solution of 1/10 serial dilutions ranging from 0 to 10 μM. Cells were grown for 48 h at 37° C. and then incubated with 10 μl/well of Promega CellTiter-Bleue reagent for 4 h at 37° C. The amount of resorufin dye formed was quantified by its fluorescence emission at 590 nm using a scanning multiwell spectrophotometer (OPTIMA, BMG labtech, France). A blank well without cells was used as a background control for the spectrophotometer.

[3] = test system: KARPAS299; experiment: CellTiter-Blue cell-based survival/proliferation assay, KARPAS299; details: Homo sapiens, KARPAS-299, Lymphoma cell line KARPAS299, 48 h, read-out: Anti-tumoral activity (measured IC50) KARPAS299
Method: as §2, §3

[4] = test system: REC1; experiment: CellTiter-Blue cell-based survival/proliferation assay, REC1; details: Homo sapiens, Lymphoma cell line REC1, 48 h, read-out: Anti-tumoral activity (measured IC50) REC1
Method: as §2, §3

[5] = test system: OPM2; experiment: CellTiter-Blue cell-based survival/proliferation assay, OPM2; details: Homo sapiens, OPM-2, Myeloma cell line OPM2, 48 h, read-out: Anti-tumoral activity (measured IC50) OPM2
Method in brief: as §1

[6] = test system: A498; experiment: CellTiter-Blue cell-based survival/proliferation assay, A498; details: Homo sapiens; A498 kidney tumor cell line, 48 h
Method in brief: as §1

[7] = test system: A549; experiment: CellTiter-Blue cell-based survival/proliferation assay, A549; details: Homo sapiens; A549 lung tumor cell line, 48 h
Method in brief: as §1

[8] = test system: ACHN; experiment: CellTiter-Blue cell-based survival/proliferation assay, ACHN; details: Homo sapiens; ACHN kidney tumor cell line, 48 h
Method in brief: as §1

[9] = test system: AGS; experiment: CellTiter-Blue cell-based survival/proliferation assay, AGS; details: Homo sapiens; AGS stomach tumor cell line, 48 h
Method in brief: as §1

[10] = test system: BT20; experiment: CellTiter-Blue cell-based survival/proliferation assay, BT20; details: Homo sapiens, BT-20; BT20 breast tumor cell line, 48 h
Method in brief: as §1

[11] = test system: BXPC3; experiment: CellTiter-Blue cell-based survival/proliferation assay, BXPC3; details: Homo sapiens, BXPC-3; BXPC3 pancreas tumor cell line, 48 h
Method in brief: as §1

[12] = test system: CALU6; experiment: CellTiter-Blue cell-based survival/proliferation assay, CALU6; details: Homo sapiens, Calu-6; CALU6 lung tumor cell line, 48 h
Method in brief: as §1

[13] = test system: CLS354; experiment: CellTiter-Blue cell-based survival/proliferation assay, CLS354; details: Homo sapiens, CLS-354; CLS354_4 head & neck tumor cell line, 48 h
Method in brief: as §1

[14] = test system: DLD1; experiment: CellTiter-Blue cell-based survival/proliferation assay, DLD1; details: Homo sapiens, DLD-1; DLD_1 colorectal tumor cell line, 48 h
Method in brief: as §1

[15] = test system: DU145; experiment: CellTiter-Blue cell-based survival/proliferation assay, DU145; details: Homo sapiens, DU-145; DU145 prostate tumor cell line, 48 h
Method in brief: as §1

[16] = test system: H1299; experiment: CellTiter-Blue cell-based survival/proliferation assay, H1299; details: Homo sapiens, NCI-H1299; H1299 lung tumor cell line, 48 h
Method in brief: as §1

[17] = test system: HCT116; experiment: CellTiter-Blue cell-based survival/proliferation assay, HCT116; details: Homo sapiens, HCT-116; HCT116 colorectal tumor cell line, 48 h
Method in brief: as §1

[18] = test system: HEP2; experiment: CellTiter-Blue cell-based survival/proliferation assay, HEP2; details: Homo sapiens, HEp-2; HEP2 head & neck tumor cell line, 48 h
Method in brief: as §1

[19] = test system: HEPG2; experiment: CellTiter-Blue cell-based survival/proliferation assay, HEPG2; details: Homo sapiens; HEPG2 liver tumor cell line, 48 h
Method in brief: as §1

[20] = test system: HGC27; experiment: CellTiter-Blue cell-based survival/proliferation assay, HGC27; details: Homo sapiens, HGC-27; HGC27 stomach tumor cell line, 48 h
Method in brief: as §1

[21] = test system: MDAMB231; experiment: CellTiter-Blue cell-based survival/proliferation assay, MDAMB231; details: Homo sapiens, MDA-MB-231; MDAMB231 breast tumor cell line, 48 h
Method in brief: as §1

[22] = test system: MESSA; experiment: CellTiter-Blue cell-based survival/proliferation assay, MESSA; details: Homo sapiens, MES-SA; MESSA ovary tumor cell line, 48 h
Method in brief: as §1

[23] = test system: PANC1; experiment: CellTiter-Blue cell-based survival/proliferation assay, PANC1; details: Homo sapiens, PANC-1; PANC_1 pancreas tumor cell line, 48 h
Method in brief: as §1

[24] = test system: PC3; experiment: CellTiter-Blue cell-based survival/proliferation assay, PC3; details: Homo sapiens, PC-3; PC3 prostate tumor cell line, 48 h
Method in brief: as §1

[25] = test system: PLCPRF5; experiment: CellTiter-Blue cell-based survival/proliferation assay, PLCPRF5; details: Homo sapiens, PLC-PRF-5; PLC_PRF5 liver tumor cell line, 48 h
Method in brief: as §1

[26] = test system: SW579; experiment: CellTiter-Blue cell-based survival/proliferation assay, SW579; details: Homo sapiens; SW579 head & neck tumor cell line, 48 h
Method in brief: as §1

[27] = test system: TOV112D; experiment: CellTiter-Blue cell-based survival/proliferation assay, TOV112D; details: Homo sapiens; TOV112D ovary tumor cell line, 48 h
Method in brief: as §1

[28] = test system: panel of about 34 human tumor cell lines; experiment: Cell-based proliferation screening on panel of tumor cell lines; details: solid tumor cell line, cell line unknown, 48 h, read-out: IC50, solid tumor cell line of column 6 (last section of Table 3)
Method in brief: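 CellTiter-Blue survival assay with 1·10^4 cells/well, each line treated 48 h at 37° C with 1/10 serial dilutions from 0 to 10 μM. Resorufin formed during a 4 h reagent incubation is read by fluorescence at 590 nm. A cell-free blank serves as background.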

| SMILES | IC50 [1] | IC50 [2] | IC50 [3] | IC50 [4] | IC50 [5] | IC50 [6] | IC50 [7] | IC50 [8] | IC50 [9] | IC50 [10] | IC50 [11] | IC50 [12] | IC50 [13] | IC50 [14] | IC50 [15] | IC50 [16] | IC50 [17] | IC50 [18] | IC50 [19] | IC50 [20] | also measured |
| --- | --- | --- | --- | --- | --- | --- | --- | --- | --- | --- | --- | --- | --- | --- | --- | --- | --- | --- | --- | --- | --- |
| CCOCc1ccc(C)c(Nc2ncc(-c3ccc(-c4ccc[nH]c4=O)cc3)o2)c1 [Example 050, 3-{4-[2-(5-Ethoxymethyl-(2-methyl-phenylamino))-oxazol-5-yl]-phenyl}-1H-pyridin-2-one] | 0.5 to 1 µM | > 1 µM | 0.1 to 0.5 µM | 0.5 to 1 µM | 0.5 to 1 µM | > 1 µM | > 1 µM | > 1 µM | > 1 µM | > 1 µM | > 1 µM | > 1 µM | > 1 µM | > 1 µM | > 1 µM | > 1 µM | > 1 µM | > 1 µM | > 1 µM | > 1 µM | IC50 [21]: > 1 µM; IC50 [22]: > 1 µM; IC50 [23]: > 1 µM; IC50 [24]: > 1 µM; IC50 [25]: > 1 µM; IC50 [26]: > 1 µM; IC50 [27]: > 1 µM; IC50 [28]: 0.5 to 1 µM |
| CCOCc1ccc(C)c(Nc2ncc(-c3ccc(N4CCN(CCNC(C)=O)C4=O)cc3)o2)c1 [Example 046, N-[2-(3-{4-[2-(5-Ethoxymethyl-(2-methyl-phenylamino))-oxazol-5-yl]-phenyl}-2-oxo-imidazolidin-1-yl)-ethyl]-acetamide] | > 1 µM | > 1 µM | > 1 µM | > 1 µM | > 1 µM | > 1 µM | > 1 µM | > 1 µM | > 1 µM | > 1 µM | > 1 µM | > 1 µM | > 1 µM | > 1 µM | > 1 µM | > 1 µM | > 1 µM | > 1 µM | > 1 µM | > 1 µM | IC50 [21]: > 1 µM; IC50 [22]: > 1 µM; IC50 [23]: > 1 µM; IC50 [24]: > 1 µM; IC50 [25]: > 1 µM; IC50 [26]: > 1 µM; IC50 [27]: > 1 µM; IC50 [28]: > 1 µM |
| Cc1ccc(C(=O)NCCN2CCN(C)CC2)cc1Nc1ncc(-c2ccc(-n3cccn3)cc2)o1 [Example 032, 4-Methyl-N-[2-(4-methyl-piperazin-1-yl)-ethyl]-3-[5-(4-pyrazol-1-yl-phenyl)-oxazol-2-ylamino]-benzamide] | > 1 µM | > 1 µM | > 1 µM | > 1 µM | > 1 µM | > 1 µM | > 1 µM | > 1 µM | > 1 µM | > 1 µM | > 1 µM | > 1 µM | > 1 µM | > 1 µM | > 1 µM | > 1 µM | > 1 µM | > 1 µM | > 1 µM | > 1 µM | IC50 [21]: > 1 µM; IC50 [22]: > 1 µM; IC50 [23]: > 1 µM; IC50 [24]: > 1 µM; IC50 [25]: > 1 µM; IC50 [26]: > 1 µM; IC50 [27]: > 1 µM; IC50 [28]: > 1 µM |
| CCOCc1ccc(C)c(Nc2ncc(-c3ccc(-c4nccs4)cc3)o2)c1 [Example 038, (5-Ethoxymethyl-2-methyl-phenyl)-[5-(4-thiazol-2-yl-phenyl)-oxazol-2-yl]-amine] | 0.1 to 0.5 µM | > 1 µM | > 1 µM | 0.1 to 0.5 µM | 0.1 to 0.5 µM | > 1 µM | > 1 µM | > 1 µM | > 1 µM | > 1 µM | > 1 µM | > 1 µM | > 1 µM | > 1 µM | > 1 µM | > 1 µM | > 1 µM | 0.5 to 1 µM | > 1 µM | > 1 µM | IC50 [21]: > 1 µM; IC50 [22]: > 1 µM; IC50 [23]: > 1 µM; IC50 [24]: > 1 µM; IC50 [25]: > 1 µM; IC50 [26]: > 1 µM; IC50 [27]: > 1 µM; IC50 [28]: 0.5 to 1 µM |
